Test results: PMC5218480 (PLoS ONE, 2017)

Tested on: MV-4-11 cells
Assay: Gene expression microarray analysis (Affymetrix PrimeView) and GSEA
Type: cell-based, human
Design: RFU PODN (11730768_x_at) / Fold change /veh PODN (11730768_x_at) / RFU LINC00158 (11744669_a_at) / Fold change /veh LINC00158 (11744669_a_at) / RFU DUSP10 (11751237_a_at) / Fold change /veh DUSP10 (11751237_a_at) / RFU ID3 (11757404_x_at) / Fold change /veh ID3 (11757404_x_at) / RFU PLEKHG5 (11737974_s_at) / Fold change /veh PLEKHG5 (11737974_s_at) / RFU LRRC4B (11730491_at) / Fold change /veh LRRC4B (11730491_at) / RFU GIMAP4 (11747438_a_at) / Fold change /veh GIMAP4 (11747438_a_at) / RFU KRT8 (11758183_x_at) / Fold change /veh KRT8 (11758183_x_at) / RFU CNN1 (11734310_a_at) / Fold change /veh CNN1 (11734310_a_at) / RFU VPS37D (11726825_at) / Fold change /veh VPS37D (11726825_at) / RFU C10orf10 (11716522_x_at) / Fold change /veh C10orf10 (11716522_x_at) / RFU KIR2DL2 /// KIR2DL4 /// KIR2DL5A /// KIR2DL5B /// KIR2DS1 /// KIR2DS2 /// KIR2DS3 /// KIR2DS4 /// KIR3DL3 /// KIR3DL3 /// KIR3DS1 (11738374_at) / Fold change /veh KIR2DL2 /// KIR2DL4 /// KIR2DL5A /// KIR2DL5B /// KIR2DS1 /// KIR2DS2 /// KIR2DS3 /// KIR2DS4 /// KIR3DL3 /// KIR3DL3 /// KIR3DS1 (11738374_at) / RFU C1QL1 (11718748_at) / Fold change /veh C1QL1 (11718748_at) / RFU TMPRSS4 (11747572_a_at) / Fold change /veh TMPRSS4 (11747572_a_at) / RFU HAMP (11756126_x_at) / Fold change /veh HAMP (11756126_x_at) / RFU RNFT2 (11725882_a_at) / Fold change /veh RNFT2 (11725882_a_at) / RFU NR4A2 (11747474_a_at) / Fold change /veh NR4A2 (11747474_a_at) / RFU ABCC12 (11746883_a_at) / Fold change /veh ABCC12 (11746883_a_at) / RFU TMEM136 (11760407_x_at) / Fold change /veh TMEM136 (11760407_x_at) / RFU CLDN22 /// WWC2 (11732394_at) / Fold change /veh CLDN22 /// WWC2 (11732394_at) / RFU HLA-DPB1 (11760878_x_at) / Fold change /veh HLA-DPB1 (11760878_x_at) / RFU SPINT1 (11716480_a_at) / Fold change /veh SPINT1 (11716480_a_at) / RFU GAP43 (11754022_s_at) / Fold change /veh GAP43 (11754022_s_at) / RFU A4GNT (11735810_at) / Fold change /veh A4GNT (11735810_at) / RFU PRB3 (11715151_x_at) / Fold change /veh PRB3 (11715151_x_at) / RFU TUBB4B (11761932_at) / Fold change /veh TUBB4B (11761932_at) / RFU CAPN14 (11732068_a_at) / Fold change /veh CAPN14 (11732068_a_at) / RFU TMCC2 (11721928_a_at) / Fold change /veh TMCC2 (11721928_a_at) / RFU IRGQ (11745062_a_at) / Fold change /veh IRGQ (11745062_a_at) / RFU FAM174B (11720279_a_at) / Fold change /veh FAM174B (11720279_a_at) / RFU TMPRSS4 (11748680_a_at) / Fold change /veh TMPRSS4 (11748680_a_at) / RFU FAM212B (11763350_a_at) / Fold change /veh FAM212B (11763350_a_at) / RFU PLEKHG5 (11743358_a_at) / Fold change /veh PLEKHG5 (11743358_a_at) / RFU ZSCAN30 (11745921_a_at) / Fold change /veh ZSCAN30 (11745921_a_at) / RFU CMKLR1 (11741424_a_at) / Fold change /veh CMKLR1 (11741424_a_at) / RFU LOC101060620 /// MAPK8IP1 (11723275_at) / Fold change /veh LOC101060620 /// MAPK8IP1 (11723275_at) / RFU SPTSSB (11747773_x_at) / Fold change /veh SPTSSB (11747773_x_at) / RFU PRSS12 (11739890_at) / Fold change /veh PRSS12 (11739890_at) / RFU BIN1 (11741810_x_at) / Fold change /veh BIN1 (11741810_x_at) / RFU WNT11 (11732464_a_at) / Fold change /veh WNT11 (11732464_a_at) / RFU C10orf10 (11716521_a_at) / Fold change /veh C10orf10 (11716521_a_at) / RFU C5orf56 (11738089_at) / Fold change /veh C5orf56 (11738089_at) / RFU CYB561 (11721691_x_at) / Fold change /veh CYB561 (11721691_x_at) / RFU ANKRD19P (11752326_a_at) / Fold change /veh ANKRD19P (11752326_a_at) / RFU OR2T12 /// OR2T33 /// OR2T8 (11738714_s_at) / Fold change /veh OR2T12 /// OR2T33 /// OR2T8 (11738714_s_at) / RFU VCAN (11748164_a_at) / Fold change /veh VCAN (11748164_a_at) / RFU JSRP1 (11732532_at) / Fold change /veh JSRP1 (11732532_at) / RFU KRTAP10-11 (11738290_x_at) / Fold change /veh KRTAP10-11 (11738290_x_at) / RFU MYO3A (11730013_a_at) / Fold change /veh MYO3A (11730013_a_at) / RFU EBF3 (11725865_a_at) / Fold change /veh EBF3 (11725865_a_at) / RFU CAMK2N1 (11719241_x_at) / Fold change /veh CAMK2N1 (11719241_x_at) / RFU C5orf56 (11738088_a_at) / Fold change /veh C5orf56 (11738088_a_at) / RFU OLFML3 (11715873_a_at) / Fold change /veh OLFML3 (11715873_a_at) / RFU LOC100653217 /// NTM (11731650_a_at) / Fold change /veh LOC100653217 /// NTM (11731650_a_at) / RFU MAPK11 (11762145_a_at) / Fold change /veh MAPK11 (11762145_a_at) / RFU FIZ1 (11724087_x_at) / Fold change /veh FIZ1 (11724087_x_at) / RFU OASL (11726364_x_at) / Fold change /veh OASL (11726364_x_at) / RFU SOX15 (11748057_x_at) / Fold change /veh SOX15 (11748057_x_at) / RFU CD79A (11719716_a_at) / Fold change /veh CD79A (11719716_a_at) / RFU HIST1H1D (11736915_at) / Fold change /veh HIST1H1D (11736915_at) / RFU CASKIN2 (11723855_a_at) / Fold change /veh CASKIN2 (11723855_a_at) / RFU LOC730098 (11760151_x_at) / Fold change /veh LOC730098 (11760151_x_at) / RFU OR4N2 (11742367_at) / Fold change /veh OR4N2 (11742367_at) / RFU PRRT2 (11749266_a_at) / Fold change /veh PRRT2 (11749266_a_at) / RFU SNX32 (11753110_a_at) / Fold change /veh SNX32 (11753110_a_at) / RFU CDHR5 (11726645_a_at) / Fold change /veh CDHR5 (11726645_a_at) / RFU RCAN1 (11760418_a_at) / Fold change /veh RCAN1 (11760418_a_at) / RFU FAM167A (11723789_a_at) / Fold change /veh FAM167A (11723789_a_at) / RFU FAM26E (11764081_at) / Fold change /veh FAM26E (11764081_at) / RFU ISYNA1 (11749810_s_at) / Fold change /veh ISYNA1 (11749810_s_at) / RFU ACY1 (11761880_at) / Fold change /veh ACY1 (11761880_at) / RFU 11764098_at / Fold change /veh 11764098_at / RFU SAMD14 (11745864_x_at) / Fold change /veh SAMD14 (11745864_x_at) / RFU NPB (11741838_a_at) / Fold change /veh NPB (11741838_a_at) / RFU TMPRSS6 (11731388_a_at) / Fold change /veh TMPRSS6 (11731388_a_at) / RFU KRTAP10-2 (11738614_at) / Fold change /veh KRTAP10-2 (11738614_at) / RFU ARHGAP8 /// PRR5-ARHGAP8 (11727945_x_at) / Fold change /veh ARHGAP8 /// PRR5-ARHGAP8 (11727945_x_at) / RFU KRTAP5-7 /// NADSYN1 (11734609_at) / Fold change /veh KRTAP5-7 /// NADSYN1 (11734609_at) / RFU RASL12 (11751679_a_at) / Fold change /veh RASL12 (11751679_a_at) / RFU CDKN2B (11736163_a_at) / Fold change /veh CDKN2B (11736163_a_at) / RFU PRF1 (11729649_at) / Fold change /veh PRF1 (11729649_at) / RFU, ZNF638 /// ZNF638-IT1 / Fold change vs veh, ZNF638 /// ZNF638-IT1 / RFU, PANK3 / Fold change vs veh, PANK3 / RFU, SH3YL1 / Fold change vs veh, SH3YL1 / RFU, ZEB2 / Fold change vs veh, ZEB2 / RFU, NRIP1 / Fold change vs veh, NRIP1 / RFU, PTTG1IP / Fold change vs veh, PTTG1IP / RFU, CAPN2 / Fold change vs veh, CAPN2 / RFU, MED14 / Fold change vs veh, MED14 / RFU, SNORA58 / Fold change vs veh, SNORA58 / RFU, C1orf63 / Fold change vs veh, C1orf63 / RFU, LRRFIP1 / Fold change vs veh, LRRFIP1 / RFU, NDUFAF7 / Fold change vs veh, NDUFAF7 / RFU, SLC12A2 / Fold change vs veh, SLC12A2 / RFU, IBTK / Fold change vs veh, IBTK / RFU, ESF1 / Fold change vs veh, ESF1 / Fold change vs veh, TMEM50B / RFU, TAOK1 / Fold change vs veh, TAOK1 / RFU, ACBD3 / Fold change vs veh, ACBD3 / RFU, TMA16 / Fold change vs veh, TMA16 / RFU, RWDD3 / Fold change vs veh, RWDD3 / RFU, BCAT1 / Fold change vs veh, BCAT1 / RFU, EDEM3 / Fold change vs veh, EDEM3 / RFU, TMEM33 / Fold change vs veh, TMEM33 / RFU, WDR75 / Fold change vs veh, WDR75 / RFU, AHCTF1 / Fold change vs veh, AHCTF1 / RFU, TFRC / Fold change vs veh, TFRC / RFU, ZDHHC17 / Fold change vs veh, ZDHHC17 / RFU, NOM1 / Fold change vs veh, NOM1 / RFU, ARL8B / Fold change vs veh, ARL8B / RFU, ZBTB11 / Fold change vs veh, ZBTB11 / RFU, TAMM41 / Fold change vs veh, TAMM41 / RFU, KIAA1704 /// LOC100996395 / Fold change vs veh, KIAA1704 /// LOC100996395 / RFU, ING1 / Fold change vs veh, ING1 / RFU, TRMT61B / Fold change vs veh, TRMT61B / RFU, FUBP3 / Fold change vs veh, FUBP3 / RFU, TP53 / Fold change vs veh, TP53 / RFU, TNKS2 / Fold change vs veh, TNKS2 / RFU, ZFP14 / Fold change vs veh, ZFP14 / RFU, ACTR2 / Fold change vs veh, ACTR2 / RFU, PPP3R1 / Fold change vs veh, PPP3R1 / RFU, PIK3R1 / Fold change vs veh, PIK3R1 / RFU, HNRNPA1 / Fold change vs veh, HNRNPA1 / RFU, RNF170 / Fold change vs veh, RNF170 / RFU, ZNF28 / Fold change vs veh, ZNF28 / RFU, RNGTT / Fold change vs veh, RNGTT / RFU, OGT / Fold change vs veh, OGT / RFU, BRD1 / Fold change vs veh, BRD1 / RFU, MARS / Fold change vs veh, MARS / RFU, ZNF655 / Fold change vs veh, ZNF655 / RFU, FAHD1 / Fold change vs veh, FAHD1 / RFU, BDP1 / Fold change vs veh, BDP1 / RFU, LRRCC1 / Fold change vs veh, LRRCC1 / RFU, ARID1A / Fold change vs veh, ARID1A / RFU, ZNF146 / Fold change vs veh, ZNF146 / RFU, ZNF330 / Fold change vs veh, ZNF330 / RFU, GPN3 / Fold change vs veh, GPN3 / RFU, C9orf123 / Fold change vs veh, C9orf123 / RFU, N4BP2L2 / Fold change vs veh, N4BP2L2 / RFU, ARFIP1 / Fold change vs veh, ARFIP1 / RFU, FAM179B / Fold change vs veh, FAM179B / RFU, BCL10 / Fold change vs veh, BCL10 / RFU, UHRF1BP1L / Fold change vs veh, UHRF1BP1L / RFU, BET1 / Fold change vs veh, BET1 / RFU, CNOT2 / Fold change vs veh, CNOT2 / RFU, ZNF268 / Fold change vs veh, ZNF268 / Fold change vs veh, ZNF507 / RFU, DGCR2 / Fold change vs veh, DGCR2 / RFU, WDSUB1 / Fold change vs veh, WDSUB1 / Fold change vs veh, HSP90B1 /// MIR3652 / RFU, ADSS / Fold change vs veh, ADSS / RFU, GK / Fold change vs veh, GK / RFU, ZNF148 / Fold change vs veh, ZNF148 / RFU, TAF9 / Fold change vs veh, TAF9 / RFU, SLC1A5 / Fold change vs veh, SLC1A5 / RFU, SLMO2 / Fold change vs veh, SLMO2 / RFU, ABCC4 / Fold change vs veh, ABCC4 / RFU, LOC101060439 /// RAP1B / Fold change vs veh, LOC101060439 /// RAP1B / RFU, RFX7 / Fold change vs veh, RFX7 / RFU, GTPBP10 / Fold change vs veh, GTPBP10 / RFU, CNEP1R1 / Fold change vs veh, CNEP1R1 / RFU, BIVM-ERCC5 /// ERCC5 / Fold change vs veh, BIVM-ERCC5 /// ERCC5 / RFU, ILF3 / Fold change vs veh, ILF3 / RFU 11762660_at / Fold change /veh 11762660_at / RFU VCAN (11757783_s_at) / Fold change /veh VCAN (11757783_s_at) / RFU DDX43 (11728927_at) / Fold change /veh DDX43 (11728927_at) / RFU KRT8 (11758188_x_at) / Fold change /veh KRT8 (11758188_x_at) / RFU NKD1 (11759106_at) / Fold change /veh NKD1 (11759106_at) / RFU SRD5A1 (11742802_a_at) / Fold change /veh SRD5A1 (11742802_a_at) / RFU TPSAB1 /// TPSB2 (11721975_s_at) / Fold change /veh TPSAB1 /// TPSB2 (11721975_s_at) / RFU GSTM3 (11746129_a_at) / Fold change /veh GSTM3 (11746129_a_at) / RFU IL23R (11737362_x_at) / Fold change /veh IL23R (11737362_x_at) / RFU TMEM51 (11727254_a_at) / Fold change /veh TMEM51 (11727254_a_at) / RFU PIWIL2 (11732686_x_at) / Fold change /veh PIWIL2 (11732686_x_at) / RFU ORM1 (11744905_x_at) / Fold change /veh ORM1 (11744905_x_at) / RFU CCDC152 (11743942_at) / Fold change /veh CCDC152 (11743942_at) / RFU ECM1 (11717891_a_at) / Fold change /veh ECM1 (11717891_a_at) / RFU IL23R (11748794_a_at) / Fold change /veh IL23R (11748794_a_at) / RFU TNFAIP8L3 (11732012_x_at) / Fold change /veh TNFAIP8L3 (11732012_x_at) / RFU MBOAT4 (11741988_at) / Fold change /veh MBOAT4 (11741988_at) / RFU 11764193_at / Fold change /veh 11764193_at / RFU TMEM53 (11763286_at) / Fold change /veh TMEM53 (11763286_at) / RFU MAGEB2 (11727129_at) / Fold change /veh MAGEB2 (11727129_at) / RFU TMEM200A (11744735_a_at) / Fold change /veh TMEM200A (11744735_a_at) / RFU CCDC152 (11751479_a_at) / Fold change /veh CCDC152 (11751479_a_at) / RFU FAM211A (11726209_a_at) / Fold change /veh FAM211A (11726209_a_at) / RFU RGS16 (11746705_a_at) / Fold change /veh RGS16 (11746705_a_at) / RFU VCAN (11755009_s_at) / Fold change /veh VCAN (11755009_s_at) / RFU RHOB (11743442_s_at) / Fold change /veh RHOB (11743442_s_at) / RFU RGS16 (11720943_a_at) / Fold change /veh RGS16 (11720943_a_at) / RFU RGS16 (11720944_at) / Fold change /veh RGS16 (11720944_at) / RFU, VPS4B / Fold change vs veh, VPS4B / RFU, CREB1 / Fold change vs veh, CREB1 / RFU, DNAJC13 / Fold change vs veh, DNAJC13 / RFU, GNAQ / Fold change vs veh, GNAQ / RFU, CDK5R1 / Fold change vs veh, CDK5R1 / RFU, ZRANB3 / Fold change vs veh, ZRANB3 / RFU, CUL4A / Fold change vs veh, CUL4A / RFU, CCNY / Fold change vs veh, CCNY / RFU, UFL1 / Fold change vs veh, UFL1 / RFU, COG3 / Fold change vs veh, COG3 / RFU, DIAPH2 / Fold change vs veh, DIAPH2 / RFU, SKA2 / Fold change vs veh, SKA2 / RFU, AFF3 / Fold change vs veh, AFF3 / RFU, LMF1 / Fold change vs veh, LMF1 / RFU, IPO11 / Fold change vs veh, IPO11 / RFU, DFFB / Fold change vs veh, DFFB / RFU, FOXP1 / Fold change vs veh, FOXP1 / RFU, CARD8 / Fold change vs veh, CARD8 / RFU, STRN3 / Fold change vs veh, STRN3 / RFU, ADK / Fold change vs veh, ADK / RFU, RASSF2 / Fold change vs veh, RASSF2 / RFU, WIPF1 / Fold change vs veh, WIPF1 / RFU, LARP1B / Fold change vs veh, LARP1B / RFU, RASA1 / Fold change vs veh, RASA1 / RFU, RB1 / Fold change vs veh, RB1 / RFU, PPFIA1 / Fold change vs veh, PPFIA1 / RFU, MAT2A / Fold change vs veh, MAT2A / RFU, CCT5 / Fold change vs veh, CCT5 / RFU, WDR92 / Fold change vs veh, WDR92 / RFU, CUX1 / Fold change vs veh, CUX1 / RFU, TTC7A / Fold change vs veh, TTC7A / RFU, TMEM135 / Fold change vs veh, TMEM135 / RFU, DEPTOR / Fold change vs veh, DEPTOR / RFU, CPM / Fold change vs veh, CPM / RFU, DNAJB6 / Fold change vs veh, DNAJB6 / RFU, CACNA2D3 / Fold change vs veh, CACNA2D3 / RFU, DTX4 / Fold change vs veh, DTX4 / RFU, TFCP2 / Fold change vs veh, TFCP2 / RFU, GMCL1 /// GMCL1P1 / Fold change vs veh, GMCL1 /// GMCL1P1 / RFU, AEBP2 / Fold change vs veh, AEBP2 / RFU, SNHG1 /// SNORD22 /// SNORD25 /// SNORD26 /// SNORD27 /// SNORD28 /// SNORD29 /// SNORD31 / Fold change vs veh, SNHG1 /// SNORD22 /// SNORD25 /// SNORD26 /// SNORD27 /// SNORD28 /// SNORD29 /// SNORD31 / Fold change (Aza/veh), C12orf56 (ProbeSet 11735607_a_at) / Fold change (ACY-1035/veh), C12orf56 (ProbeSet 11735607_a_at) / Fold change (Aza/veh), FGFR1OP (ProbeSet 11751329_s_at) / Fold change (ACY-1035/veh), FGFR1OP (ProbeSet 11751329_s_at) / Fold change (Aza/veh), VPS36 (ProbeSet 11739960_a_at) / Fold change (ACY-1035/veh), VPS36 (ProbeSet 11739960_a_at) / RFU SYPL1 (11715823_x_at) / Fold change /veh SYPL1 (11715823_x_at) / RFU IGFBP7 (11715501_s_at) / Fold change /veh IGFBP7 (11715501_s_at) / RFU REEP3 (11722064_at) / Fold change /veh REEP3 (11722064_at) / RFU IGLL1 (11728026_x_at) / Fold change /veh IGLL1 (11728026_x_at): dose or concentration left out as unconfirmed
Settings: ProbeSet 11719493_s_at; LIST B

## Nc1ccc(-c2cccs2)cc1NC(=O)c1ccc2c(c1)cc(C1CC1)n2CCN1CCOCC1 [ACY-1035]
  Fold change vs veh, TAF9: 0.84
